{"source": "paper PMC7062083", "about": "“Metabolite identification, tissue distribution, excretion and preclinical pharmacokinetic studies of ET-26-HCl, a new analogue of etomidate” (Royal Society Open Science, 2020)", "key": {"[1]": {"experiment": "Plasma protein binding, equilibrium dialysis, mouse plasma", "format": "in vitro ADME", "experimental": "(§1) The PPB of ET-26-HCl in mouse, rat, beagle dog, monkey and human plasma was determined according to the equilibrium dialysis method. In brief, 1 ml of control plasma samples in dialysis bag was incubated in 10 ml of PBS containing ET-26-HCl at a final concentration of 2.21 × 10^2, 1.77 × 10^3 and 3.54 × 10^3 […] at 4°C with an equilibrium time of 9 h to reach the mass balance binding condition. A 100 µl aliquots of the PBS buffer and the plasma in the dialysis bag were transferred to 2 ml EP tubes and diluted to 995 µl with PBS and analysed on the LC–MS/MS system. The PPB (fppb) was calculated as follows: fppb=Din−Dout/Din×100% , where Din is the plasma drug concentration in the dialysis bag and Dout is the dialysate drug concentration."}, "[2]": {"experiment": "Metabolic stability in dog liver microsomes", "format": "in vitro ADME", "conditions": "for half-life: pH 7.4", "experimental": "(§2) Samples were analysed by LC–MS/MS as mentioned above.2.1 CLint, in vitro=0.693/t1/2/Cprotein, 2.2 CLint, in vivo=CLint, in vitro×Houston×LW/1000 2.3 andCLhep in vivo=HBF × fu ×CLint, in vivo/HBF + fu ×CLint, in vivo. Where Cprotein is microsomal protein concentration (mg ml^−1); Houston is Houston factor (45 mg of microsomal protein g^−1 liver); LW is liver weight (g) (per species); HBF is hepatic blood flow (ml min^−1) (per species); fu (two places) and later is unbound fraction (fu = 1 − %protein binding)."}, "[3]": {"experiment": "Excretion (urine, faeces, bile) in Sprague Dawley rats", "format": "in vivo", "experimental": "Concentrations of ET-26-HCl and ET-26-acid in biological samples were determined by liquid chromatography–tandem mass spectrometry (LC–MS/MS) after deproteinization with methanol. The bioanalytical method for simultaneous quantification of ET-26-HCl and ET-26-acid in the different matrix was fully validated according to FDA guidelines (electronic supplementary material, figure S1 and tables S1 and S2) in our previous study. Briefly, a 100 µl sample (plasma, tissue homogenate, bile, urine and faeces suspension) were spiked with 20 µl of IS solution and vortexed for 30 s. The mixture was then processed for protein precipitation with 300 µl methanol, followed by centrifugation at 12 000 r.p.m. for 5 min. Supernatant was collected and analysed by LC–MS/MS system.\nSD rats (4 male and 4 female) received 4.2 mg kg^−1 of ET-26-HCl intravenously and were housed in metabolic cages. Urine and faeces from the treated rats were collected between 0–6, 6–12, 12–24, 24–30, 30–36 and 36–48 h post-dosing. Urine volume and faeces weight were measured and recorded.\nBile fistulas of SD rats (four male and four female) were cannulated with polyethylene tube (Instech Laboratories, Inc., USA) and bile was collected at the following time-points: 0–3, 3–6, 6–9, 9–12 and 12–24 h post-dosing. The volume of the collected bile was measured and stored at −80°C until analysis."}, "human plasma": {"tested_on": "human plasma", "experiment": "Plasma protein binding, equilibrium dialysis, human plasma", "format": "in vitro ADME", "conditions": "overall over the three concentrations", "experimental": "as §1"}, "[4]": {"experiment": "Plasma protein binding, equilibrium dialysis, human plasma", "format": "in vitro ADME", "conditions": "human, plasma", "experimental": "as §1"}, "[5]": {"experiment": "Dose tolerance pre-experiment in rats", "format": "in vivo", "experimental": "For the PK study of beagle dogs and excretion test of rats, how do you identify those doses? As you described, beagle dogs in the 6 groups received three doses of ET-26- HCl: 1.045 mg/kg, 2.090 mg/kg, and 4.180 mg/kg as low (L), medium (M), and high (H) dose; however, the rats received a single 4.2 mg/kg dose of ET-26-HCl. Please provide the citations or calculation of […]\nThank the reviewer for this comment. According to the “Guidelines for non-clinical pharmacokinetic studies of drugs” of China Food and Drug Administration, the in vivo pharmacokinetic studies of animals should be performed with at least three dose groups, which the high dose is preferably close to the maximum tolerated dose, and the small dose is selected based on the limits of the effective dose of the animals. […]\nkg and 1.045 mg/ kg for rat and dog, respectively, according to the results of the drug effect in the early stage of the cooperation laboratory. In our pre-experiment, individual rats appeared myoclonus after the 4-fold ED50 dose administration. When given the higher dose, some rats […]\nThus, the ED50, 2-fold ED50, and 4-fold ED50 dose were used as the low, middle and high dose group for the pharmacokinetic study in our previous research. Similar dosage design was used in our present work. The middle dose (4.2 mg/kg dose of ET-26-HCl) was utilized for the excretion test in rats. […]"}, "[6]": {"experiment": "Metabolic stability in rat liver microsomes", "format": "in vitro ADME", "experimental": "as §2"}, "[7]": {"design": "method as in earlier work", "conditions": "dog; ref results of the drug effect in the early stage of the cooperation laboratory; cited from earlier work"}, "[8]": {"conditions": "rats, i.v., cited from earlier work"}, "[9]": {"conditions": "measured concentration 654 ng ml^−1"}, "[10]": {"conditions": "measured concentration 2.62 × 10^3 ng ml^−1, read-out: protein binding (converted)"}, "[11]": {"conditions": "measured concentration 5.23 × 10^3 ng ml^−1, read-out: protein binding (converted)"}, "[12]": {"conditions": "overall over the three concentrations, read-out: plasma protein binding rate (converted)"}, "[13]": {"conditions": "dog liver microsomes, Cprotein 0.33 mg ml^−1"}, "[14]": {"conditions": "i.v. ET-26-HCl 4.2 mg kg^−1, collected to 48 h"}}, "note": "Several values for one entry are separate records, joined by “and”; a condition that tells them apart may be missing. Equal values may be shown once. Read-outs that look alike come from different tables or passages of the source."}
{"smiles": "COCCOC(=O)c1cncn1[C@H](C)c1ccccc1.Cl", "note": "[ET-26-HCl, (R)-2-methoxyethyl1-(1-phenylethyl)-1H-imidazole-5-carboxylate hydrochloride]", "values": [{"measurement": "fraction unbound at 9 h, 654 ng ml^−1", "setting": "[1]; [9]", "result": 0.0453}, {"measurement": "fraction unbound at 9 h", "setting": "[1]; [10]", "result": 0.0539}, {"measurement": "fraction unbound at 9 h", "setting": "[1]; [11]", "result": 0.0702}, {"measurement": "fraction unbound at 9 h", "setting": "[1]; [12]", "result": "0.0565 ± 0.000689"}, {"measurement": "half-life", "setting": "[2]; beagle, dog liver microsomes, Cprotein 0.33 mg ml^−1", "result": "< 5", "unit": "min"}, {"measurement": "CLint, in vitro", "setting": "[2]; dog liver microsomes", "result": 466, "unit": "ml min g^−1 protein"}, {"measurement": "metabolic stability (in words)", "setting": "[2]; dog liver microsomes", "result": "not metabolically stable"}, {"measurement": "CLint, in vitro", "setting": "[2]; [13]", "result": "466 ± 12.3", "unit": "ml min^−1 g^−1 protein"}, {"measurement": "extrapolated hepatic clearance normalized to body weight", "setting": "[2]; dog, assumed body weight 10 kg (printed order)", "result": 4.58, "unit": "L·h/kg"}, {"measurement": "extrapolated CLhep in vivo", "setting": "[2]; dog, from liver microsomes", "result": "296 mL/min and 296 ± 0.35 mL/min"}, {"measurement": "extrapolated CLint, in vivo", "setting": "[2]; dog, from liver microsomes", "result": "6712 ± 117", "unit": "mL/min"}, {"measurement": "half-life", "setting": "[2]; [13]", "result": "4.5 ± 0.1", "unit": "min"}, {"measurement": "accumulative excretion through bile", "setting": "[3]; i.v. ET-26-HCl 4.2 mg kg^−1, bile collected to 24 h", "result": 0.619, "unit": "%"}, {"measurement": "accumulative excretion through faeces", "setting": "[3]; [14]", "result": 0.076, "unit": "%"}, {"measurement": "accumulative excretion through urine", "setting": "[3]; [14]", "result": 11.97, "unit": "%"}, {"measurement": "plasma protein binding rate", "setting": "human plasma", "result": 68, "unit": "%"}, {"measurement": "fraction unbound at 9 h, 654 ng ml^−1", "setting": "[4]; [9]", "result": 0.372}, {"measurement": "fraction unbound at 9 h", "setting": "[4]; [10]", "result": 0.318}, {"measurement": "fraction unbound at 9 h", "setting": "[4]; [11]", "result": 0.261}, {"measurement": "fraction unbound at 9 h", "setting": "[4]; [12]", "result": 0.317}, {"measurement": "adverse signs observed", "setting": "[5]; individual rats, after the 4-fold ED50 dose", "result": "myoclonus"}, {"measurement": "adverse signs observed", "setting": "[5]; some rats, dose higher than 4-fold ED50", "result": "convulsions and even died"}, {"measurement": "CLint, in vitro", "setting": "[6]; rat liver microsomes", "result": 984, "unit": "ml min g^−1 protein"}, {"measurement": "metabolic stability (in words)", "setting": "[6]; rat liver microsomes", "result": "not metabolically stable"}, {"measurement": "CLint, in vitro", "setting": "[6]; rat liver microsomes, Cprotein 0.33 mg ml^−1", "result": "984 ± 68.6", "unit": "ml min^−1 g^−1 protein"}, {"measurement": "extrapolated hepatic clearance normalized to body weight", "setting": "[6]; rat, assumed body weight 0.25 kg (printed order)", "result": 1.78, "unit": "L·h/kg"}, {"measurement": "extrapolated CLhep in vivo", "setting": "[6]; rat, from liver microsomes", "result": "19.1 mL/min and 19.1 ± 0.1 mL/min"}, {"measurement": "extrapolated CLint, in vivo", "setting": "[6]; rat, from liver microsomes", "result": "443 ± 30.9", "unit": "mL/min"}, {"measurement": "ED50", "setting": "[7]", "result": 1.045, "unit": "mg/kg"}, {"measurement": "AUC0-t", "setting": "[8]; 2.1 mg/kg", "result": "28.47 ± 3.41", "unit": "mg·min/L"}, {"measurement": "CL", "setting": "[8]; 2.1 mg/kg", "result": "3.48 ± 0.66", "unit": "L/h/kg"}, {"measurement": "Cmax", "setting": "[8]; 2.1 mg/kg", "result": "1.82 ± 0.20", "unit": "mg/L"}, {"measurement": "Vd", "setting": "[8]; 2.1 mg/kg", "result": "5.37 ± 0.72", "unit": "L/kg"}, {"measurement": "t1/2", "setting": "[8]; 2.1 mg/kg", "result": "65.4 ± 12.6", "unit": "min"}, {"measurement": "λ", "setting": "[8]; 2.1 mg/kg", "result": "0.66 ± 0.24", "unit": "h⁻¹"}, {"measurement": "AUC0-t", "setting": "[8]; 4.2 mg/kg", "result": "41.70 ± 3.61", "unit": "mg·min/L"}, {"measurement": "CL", "setting": "[8]; 4.2 mg/kg", "result": "5.52 ± 0.48", "unit": "L/h/kg"}, {"measurement": "Cmax", "setting": "[8]; 4.2 mg/kg", "result": "3.31 ± 0.21", "unit": "mg/L"}, {"measurement": "Vd", "setting": "[8]; 4.2 mg/kg", "result": "5.24 ± 1.33", "unit": "L/kg"}, {"measurement": "t1/2", "setting": "[8]; 4.2 mg/kg", "result": "39.6 ± 10.2", "unit": "min"}, {"measurement": "λ", "setting": "[8]; 4.2 mg/kg", "result": "1.20 ± 0.36", "unit": "h⁻¹"}, {"measurement": "AUC0-t", "setting": "[8]; 8.4 mg/kg", "result": "110.92 ± 9.04", "unit": "mg·min/L"}, {"measurement": "CL", "setting": "[8]; 8.4 mg/kg", "result": "3.84 ± 0.3", "unit": "L/h/kg"}, {"measurement": "Cmax", "setting": "[8]; 8.4 mg/kg", "result": "7.01 ± 0.36", "unit": "mg/L"}, {"measurement": "Vd", "setting": "[8]; 8.4 mg/kg", "result": "4.67 ± 0.99", "unit": "L/kg"}, {"measurement": "t1/2", "setting": "[8]; 8.4 mg/kg", "result": "51 ± 8.4", "unit": "min"}, {"measurement": "λ", "setting": "[8]; 8.4 mg/kg", "result": "0.78 ± 0.12", "unit": "h⁻¹"}, {"measurement": "time until cleared after intravenous administration", "setting": "[8]", "result": "≤ 4", "unit": "h"}]}
